Experimental findings from US7041785B1, “B1-bradykinin receptor antagonists and use thereof” (Université de Sherbrooke, priority 1996, dated 2006) are described below.

Common to all, as to test: cell-based
The target in one assay is T1, B1 receptor (Oryctolagus cuniculus, UniProt P48748).
T1 sequence (P48748 1-352): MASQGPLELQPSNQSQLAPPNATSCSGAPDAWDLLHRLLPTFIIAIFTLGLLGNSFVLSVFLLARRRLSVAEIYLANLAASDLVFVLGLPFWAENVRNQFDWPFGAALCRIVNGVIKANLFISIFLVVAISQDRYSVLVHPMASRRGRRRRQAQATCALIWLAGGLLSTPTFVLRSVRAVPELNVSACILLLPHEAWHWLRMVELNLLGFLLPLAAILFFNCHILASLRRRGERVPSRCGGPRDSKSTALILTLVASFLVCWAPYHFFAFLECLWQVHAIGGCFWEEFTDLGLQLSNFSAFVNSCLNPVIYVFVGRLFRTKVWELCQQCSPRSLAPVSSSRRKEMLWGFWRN
Particulars: Rb.A. pA2, apparent affinity as antagonist vs desArg9BK; antagonist applied 10 min before; Inactive = no detectable antagonistic effect at ≦ 10 μg/ml. A digest of the protocol: (§1)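 Isolated rabbit jugular vein (captopril 1 μmol/L), guinea pig ileum, endothelium-free rabbit aorta and human umbilical vein, in Krebs at 37 °C, with isometric tension recorded. Agonism was tested at 10 μg/mL.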

Assay [1] addresses T2, B2 receptor (Cavia porcellus, UniProt O70526).
T2 sequence (O70526 1-372): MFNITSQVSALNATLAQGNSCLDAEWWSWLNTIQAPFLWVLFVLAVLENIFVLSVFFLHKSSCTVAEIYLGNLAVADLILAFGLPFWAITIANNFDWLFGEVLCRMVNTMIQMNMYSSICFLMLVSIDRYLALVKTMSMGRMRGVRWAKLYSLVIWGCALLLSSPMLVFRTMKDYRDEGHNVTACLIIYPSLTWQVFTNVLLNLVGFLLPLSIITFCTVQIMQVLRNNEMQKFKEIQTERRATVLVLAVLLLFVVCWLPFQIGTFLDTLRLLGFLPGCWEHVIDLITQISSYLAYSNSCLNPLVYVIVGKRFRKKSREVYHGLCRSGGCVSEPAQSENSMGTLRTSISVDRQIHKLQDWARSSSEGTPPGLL
Particulars: for G.P.I. pA2: vs BK, Inactive = no detectable antagonistic effect at ≦ 10 μg/ml, F.ag. full agonist, P.ag. partial agonist. A digest of the protocol: as §1

Assay [2] deals with T3, B2 receptor (Oryctolagus cuniculus, UniProt Q28642).
T3 sequence (Q28642 1-367): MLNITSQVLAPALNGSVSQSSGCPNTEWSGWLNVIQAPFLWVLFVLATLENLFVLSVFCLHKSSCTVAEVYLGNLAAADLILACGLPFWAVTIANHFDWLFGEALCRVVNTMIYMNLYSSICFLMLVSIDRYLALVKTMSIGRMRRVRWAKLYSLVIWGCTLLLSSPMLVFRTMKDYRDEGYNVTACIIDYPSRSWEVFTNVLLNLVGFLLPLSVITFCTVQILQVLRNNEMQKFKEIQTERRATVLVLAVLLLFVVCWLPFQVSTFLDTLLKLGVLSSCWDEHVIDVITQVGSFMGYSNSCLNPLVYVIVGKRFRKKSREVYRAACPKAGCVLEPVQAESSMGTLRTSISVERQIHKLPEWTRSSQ
A digest of the protocol:
as §1

SMILES strings stand for the structures. Non-standard residues stand in square brackets, D forms with d. Residues, ends and D or L forms follow the SMILES beside them. Tyr(3,5-I2) = N[C@@H](Cc1cc(I)c(O)c(I)c1)C(=O)O; Oic = O=C(O)[C@@H]1C[C@@H]2CCCC[C@@H]2N1; d2Nal = N[C@H](Cc1ccc2ccccc2c1)C(=O)O; Hyp = O=C(O)[C@@H]1C[C@@H](O)CN1; dTic = O=C(O)[C@H]1Cc2ccccc2CN1; 2Thi = N[C@@H](Cc1cccs1)C(=O)O; Ahx = NCCCCCC(=O)O; Sar = CNCC(=O)O Some results are limits rather than exact numbers.

As for `CC[C@H](C)[C@H](NC(=O)[C@@H](Cc1ccc2ccccc2c1)NC(=O)[C@H](CO)NC(=O)[C@H](Cc1ccccc1)NC(=O)CNC(=O)[C@@H]1CCCN1C(=O)[C@@H]1CCCN1C(=O)[C@H](CCCNC(=N)N)NC(=O)[C@H](CCCCN)NC(=O)CCCCCNC(=O)[C@H](Cc1ccc(O)cc1)NC(=O)CNC)C(=O)O` [Compound 29, SarTyrεAhxLys(D-βNal^7, Ile^8)desArg^9BK] (H-[Sar]Y[Ahx]KRPPGFS[d2Nal]I-OH; N-terminus and C-terminus assumed), the figures for the Kb at B1 receptor and at B2 receptor [2] were 3.31 nM and 6310 nM, respectively. The “G.P.I. pA2” value on B2 receptor [1] is reported as “Inactive”.

As for `CC[C@H](C)[C@H](NC(=O)[C@@H](Cc1ccc2ccccc2c1)NC(=O)[C@H](CO)NC(=O)[C@H](Cc1ccccc1)NC(=O)CNC(=O)[C@@H]1CCCN1C(=O)[C@@H]1CCCN1C(=O)[C@H](CCCNC(=N)N)NC(=O)[C@H](CCCCN)NC(=O)CCCCCNC(=O)[C@H](Cc1cc(I)c(O)c(I)c1)NC(=O)CNC)C(=O)O` [Compound 30, SarTyr(3,5-I)εAhxLys(D-βNal^7, Ile^8)desArg^9BK] (H-[Sar][Tyr(3,5-I2)][Ahx]KRPPGFS[d2Nal]I-OH; N-terminus and C-terminus assumed), the Kb on B1 receptor was 7.24 nM; on B2 receptor [2], 7410 nM. Also, on B2 receptor [1], the “G.P.I. pA2” value is listed as “Inactive”.

For the molecule `N=C(N)NCCC[C@@H](N)C(=O)N[C@@H](CCCNC(=N)N)C(=O)N1CCC[C@H]1C(=O)N1C[C@H](O)C[C@H]1C(=O)NCC(=O)N[C@@H](Cc1cccs1)C(=O)N[C@@H](CO)C(=O)N1Cc2ccccc2C[C@@H]1C(=O)N1[C@H](C(=O)O)C[C@@H]2CCCC[C@@H]21` [Compound 31, D-Arg(Hyp^3, Thi^5, D-Tic^7, Oic^8)desArg^9BK, reference compound] (H-[dR]RP[Hyp]G[2Thi]S[dTic][Oic]-OH; N-terminus and C-terminus assumed), the Kb at B1 receptor was 158 nM; on B2 receptor [1], more than 7590 nM; at B2 receptor [2] it was 41.7 nM.
